Assay results from US8901147B2, “Bi-heteroaryl compounds as Vps34 inhibitors” (Novartis AG, priority 2010, dated 2014).

The molecules below were run against recombinant human Vps34 (Homo sapiens, UniProt Q8NEB9) (assay: Vps34 KinaseGlo assay). Settings: KinaseGlo luminescence ATP detection; PI/OG substrate; 1 μM ATP; room temperature; 8 concentrations, n=2.
Type: biochemical
Method: It was then resuspended in 3% OctylGlucoside by vortexing and stored at 4° C. 5 μL of a mix of PI/OG with recombinant human Vps34 were added. Kinase reactions were started by addition of 5 μl of ATP-mix containing in a final volume 10 μL 10 mM TRIS-HCl pH 7.5, 3 mM MgCl2, 50 mM NaCl, 0.05% CHAPS, 1 mM DTT and 1 μM ATP, and occurred at room temperature. Reactions were stopped with 10 μl of KinaseGlo and plates were read 10 minutes later in a Synergy2 reader using an integration time of 0.1 seconds per well.

Chain of recombinant human Vps34 (Q8NEB9 whole entry): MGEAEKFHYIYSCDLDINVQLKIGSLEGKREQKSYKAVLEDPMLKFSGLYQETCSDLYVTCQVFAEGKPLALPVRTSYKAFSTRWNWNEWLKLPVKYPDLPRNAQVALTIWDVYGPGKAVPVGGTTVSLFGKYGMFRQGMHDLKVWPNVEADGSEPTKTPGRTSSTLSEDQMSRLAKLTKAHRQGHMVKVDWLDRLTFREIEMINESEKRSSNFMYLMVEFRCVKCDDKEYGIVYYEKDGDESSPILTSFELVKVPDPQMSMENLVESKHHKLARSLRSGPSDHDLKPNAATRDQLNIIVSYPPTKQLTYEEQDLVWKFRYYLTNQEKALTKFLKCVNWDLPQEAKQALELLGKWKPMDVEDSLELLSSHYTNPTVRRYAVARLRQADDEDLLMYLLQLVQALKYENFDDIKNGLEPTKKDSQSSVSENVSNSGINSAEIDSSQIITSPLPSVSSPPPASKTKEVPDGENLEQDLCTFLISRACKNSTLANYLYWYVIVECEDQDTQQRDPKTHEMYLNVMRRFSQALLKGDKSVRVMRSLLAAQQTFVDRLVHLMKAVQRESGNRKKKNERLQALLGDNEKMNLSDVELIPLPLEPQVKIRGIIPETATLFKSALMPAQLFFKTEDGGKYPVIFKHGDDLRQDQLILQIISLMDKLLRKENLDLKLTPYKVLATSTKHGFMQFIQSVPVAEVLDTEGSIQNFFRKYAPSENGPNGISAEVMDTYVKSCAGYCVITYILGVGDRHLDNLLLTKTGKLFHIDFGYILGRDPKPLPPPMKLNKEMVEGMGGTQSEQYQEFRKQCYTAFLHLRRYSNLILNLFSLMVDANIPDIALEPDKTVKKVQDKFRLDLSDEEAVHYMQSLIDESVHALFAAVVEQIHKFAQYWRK

Row | Compound | IC50 [nM]
1 | CNc1ncc(-c2ccnc(NC3CCC(O)CC3)n2)c(CC2CC2)n1 (stereo not shown) [Example 14k, 4-(4′-(cyclopropylmethyl)-2′-(methylamino)-4,5′-bipyrimidin-2-ylamino)cyclohexanol] | 857
2 | CNc1ncc(-c2ccnc(Nc3cccnc3)n2)c(CC2CC2)n1 [Example 14l, 4′-(cyclopropylmethyl)-N^2′-methyl-N^2-(pyridin-3-yl)-4,5′-bipyrimidine-2,2′-diamine] | 48
3 | CNc1ncc(-c2ccnc(Nc3ccc(OC)cc3)n2)c(CC2CC2)n1 [Example 14m, 4′-(cyclopropylmethyl)-N^2-(4-methoxyphenyl)-N^2′-methyl-4,5′-bipyrimidine-2,2′-diamine] | 119
4 | CNc1ncc(-c2ccnc(N[C@H]3CC[C@H](C(=O)O)CC3)n2)c(CC2CC2)n1 [Example 14n, (1r,4r)-4-(4′-(cyclopropylmethyl)-2′-(methylamino)-4,5′-bipyrimidin-2-ylamino)cyclohexanecarboxylic acid] | 439
5 | CNc1ncc(-c2ccnc(N[C@H]3CC[C@H](OC)CC3)n2)c(CC2CC2)n1 [Example 14o, 4′-(cyclopropylmethyl)-N^2-((1r,4r)-4-methoxycyclohexyl)-N^2′-methyl-4,5′-bipyrimidine-2,2′-diamine] | 374
6 | CNc1ncc(-c2ccnc(Nc3cc(OC)cc(OC)c3)n2)c(CC2CC2)n1 [Example 14p, 4′-(cyclopropylmethyl)-N^2-(3,5-dimethoxyphenyl)-N^2′-methyl-4,5′-bipyrimidine-2,2′-diamine] | 5170
7 | CNc1ncc(-c2ccnc(Nc3ccc(OC)c(OC)c3)n2)c(CC2CC2)n1 [Example 14q, 4′-(cyclopropylmethyl)-N^2-(3,4-dimethoxyphenyl)-N^2′-methyl-4,5′-bipyrimidine-2,2′-diamine] | 862
8 | CNc1ncc(-c2ccnc(NC3CCN(C)CC3)n2)c(CC2CC2)n1 [Example 14r, 4′-(cyclopropylmethyl)-N^2′-methyl-N^2-(1-methylpiperidin-4-yl)-4,5′-bipyrimidine-2,2′-diamine] | 1540
9 | CNc1ncc(-c2ccnc(NCCCN)n2)c(CC2CC2)n1 [Example 14s, N^2-(3-aminopropyl)-4′-(cyclopropylmethyl)-N^2′-methyl-4,5′-bipyrimidine-2,2′-diamine] | 7130
10 | CC(=O)N[C@H]1CC[C@H](Nc2nccc(-c3cnc(N)nc3CC3CC3)n2)CC1 [Example 15a, N-((1r,4r)-4-(2′-amino-4′-(cyclopropylmethyl)-4,5′-bipyrimidin-2-ylamino)cyclohexyl)acetamide] | 577
11 | CS(=O)(=O)N[C@H]1CC[C@H](Nc2nccc(-c3cnc(N)nc3CC3CC3)n2)CC1 [Example 15b, N-((1r,4r)-4-(2′-amino-4′-(cyclopropylmethyl)-4,5′-bipyrimidin-2-ylamino)cyclohexyl)methanesulfonamide] | 199
12 | Nc1ncc(-c2ccnc(NC3CCCOC3)n2)c(CC2CC2)n1 (stereo not shown) [Example 15d, 4′-(cyclopropylmethyl)-N2-(tetrahydro-2H-pyran-3-yl)-4,5′-bipyrimidine-2,2′-diamine] | 1500
13 | Nc1ncc(-c2ccnc(Nc3ccccn3)n2)c(CC2CC2)n1 [Example 15e, 4′-(cyclopropylmethyl)-N^2-(pyridin-2-yl)-4,5′-bipyrimidine-2,2′-diamine] | 196
14 | CC(C)(CO)CNc1nccc(-c2cnc(N)nc2CC2CC2)n1 [Example 15g, 3-(2′-amino-4′-(cyclopropylmethyl)-4,5′-bipyrimidin-2-ylamino)-2,2-dimethylpropan-1-ol] | 2230
15 | Cc1cc(Nc2nccc(-c3cnc(N)nc3CC3CC3)n2)on1 [Example 15h, 4′-Cyclopropylmethyl-N^2-(3-methyl-isoxazol-5-yl)-[4,5′]bipyrimidinyl-2,2′-diamine] | 48
16 | Nc1ncc(-c2ccnc(Nc3nncs3)n2)c(CC2CC2)n1 [Example 15i, 4′-(cyclopropylmethyl)-N^2-(1,3,4-thiadiazol-2-yl)-4,5′-bipyrimidine-2,2′-diamine] | 924
17 | Nc1ncc(-c2ccnc(Nc3ccc(F)cc3)n2)c(CC2CC2)n1 [Example 15j, 4′-(cyclopropylmethyl)-N^2-(4-fluorophenyl)-4,5′-bipyrimidine-2,2′-diamine] | 53
18 | Nc1ncc(-c2ccnc(NCc3ccco3)n2)c(CC2CC2)n1 [Example 15k, 4′-(cyclopropylmethyl)-N^2-(furan-2-ylmethyl)-4,5′-bipyrimidine-2,2′-diamine] | 781
19 | Nc1ncc(-c2ccnc(Nc3ccc4[nH]ccc4c3)n2)c(CC2CC2)n1 [Example 15l, 4′-(cyclopropylmethyl)-N^2-(1H-indol-5-yl)-4,5′-bipyrimidine-2,2′-diamine] | 25
20 | Nc1ncc(-c2ccnc(Nc3ccc4c(c3)OCO4)n2)c(CC2CC2)n1 [Example 15m, N^2-(benzo[d][1,3]dioxol-5-yl)-4′-(cyclopropylmethyl)-4,5′-bipyrimidine-2,2′-diamine] | 101

Row | Compound | IC50 [nM]
21 | CC(=O)Nc1ccc(Nc2nccc(-c3cnc(N)nc3CC3CC3)n2)cc1 [Example 15n, N-(4-(2′-amino-4′-(cyclopropylmethyl)-4,5′-bipyrimidin-2-ylamino)phenyl)acetamide] | 62
22 | Nc1ncc(-c2ccnc(Nc3ccc(Cl)cc3)n2)c(CC2CC2)n1 [Example 15o, N^2-(4-chlorophenyl)-4′-(cyclopropylmethyl)-4,5′-bipyrimidine-2,2′-diamine] | 57
23 | Nc1ncc(-c2ccnc(NCCc3c[nH]c4ccccc34)n2)c(CC2CC2)n1 [Example 15p, N^2-(2-(1H-indol-3-yl)ethyl)-4′-(cyclopropylmethyl)-4,5′-bipyrimidine-2,2′-diamine] | 122
24 | Nc1ncc(-c2ccnc(NCc3cccnc3)n2)c(CC2CC2)n1 [Example 15q] | 1290
25 | Nc1ncc(-c2ccnc(NCCN3CCOCC3)n2)c(CC2CC2)n1 [Example 15s, 4′-(cyclopropylmethyl)-N^2-(2-morpholinoethyl)-4,5′-bipyrimidine-2,2′-diamine] | 1660
26 | Nc1ncc(-c2ccnc(NCCc3c[nH]cn3)n2)c(CC2CC2)n1 [Example 15t, N^2-(2-(1H-imidazol-4-yl)ethyl)-4′-(cyclopropylmethyl)-4,5′-bipyrimidine-2,2′-diamine] | 187
27 | Nc1ccc(Nc2nccc(-c3cnc(N)nc3CC3CC3)n2)cc1 [Example 15u, N^2-(4-aminophenyl)-4′-(cyclopropylmethyl)-4,5′-bipyrimidine-2,2′-diamine] | 104
28 | Nc1ncc(-c2ccnc(Nc3ccc(Cl)cn3)n2)c(CC2CC2)n1 [Example 15v, N^2-(5-chloropyridin-2-yl)-4′-(cyclopropylmethyl)-4,5′-bipyrimidine-2,2′-diamine] | 193
29 | Cc1cc2cc(Nc3nccc(-c4cnc(N)nc4CC4CC4)n3)ccc2[nH]1 [Example 15w, 4′-(cyclopropylmethyl)-N^2-(2-methyl-1H-indol-5-yl)-4,5′-bipyrimidine-2,2′-diamine] | 36
30 | N#Cc1ccc(Nc2nccc(-c3cnc(N)nc3CC3CC3)n2)cc1 [Example 15x, 4-(2′-amino-4′-(cyclopropylmethyl)-4,5′-bipyrimidin-2-ylamino)benzonitrile] | 27
31 | CN(C)c1cccc(Nc2nccc(-c3cnc(N)nc3CC3CC3)n2)c1 [Example 15y, 4′-(cyclopropylmethyl)-N^2-(3-(dimethylamino)phenyl)-4,5′-bipyrimidine-2,2′-diamine] | 231
32 | CC(C)(O)CNc1ncc(-c2ccnc(Nc3ccc(C#N)cc3)n2)c(CC2CC2)n1 [Example 16b, 4-(4′-(cyclopropylmethyl)-2′-(2-hydroxy-2-methylpropylamino)-4,5′-bipyrimidin-2-ylamino)benzonitrile] | 25
33 | CC(C)(O)CNc1ncc(-c2ccnc(Nc3ccc(F)cc3)n2)c(CC2CC2)n1 [Example 16c, 1-(4′-(cyclopropylmethyl)-2-(4-fluorophenylamino)-4,5′-bipyrimidin-2′-ylamino)-2-methylpropan-2-ol] | 150
34 | CC(C)(O)CNc1ncc(-c2ccnc(Nc3ccc(S(C)(=O)=O)cc3)n2)c(CC2CC2)n1 [Example 16d, 1-(4′-(cyclopropylmethyl)-2-(4-(methylsulfonyl)phenylamino)-4,5′-bipyrimidin-2′-ylamino)-2-methylpropan-2-ol] | 26
35 | CC(C)(O)CNc1ncc(-c2ccnc(Nc3ccc(Cl)cc3)n2)c(CC2CC2)n1 [Example 16e, 1-(2-(4-chlorophenylamino)-4′-(cyclopropylmethyl)-4,5′-bipyrimidin-2′-ylamino)-2-methylpropan-2-ol] | 105
36 | CC(=O)Nc1ccc(Nc2nccc(-c3cnc(NCC(C)(C)O)nc3CC3CC3)n2)cc1 [Example 16f, N-(4-(4′-(cyclopropylmethyl)-2′-(2-hydroxy-2-methylpropylamino)-4,5′-bipyrimidin-2-ylamino)phenyl)acetamide] | 138
37 | CC(C)(O)CNc1ncc(-c2ccnc(N[C@H]3CC[C@H](NS(C)(=O)=O)CC3)n2)c(CC2CC2)n1 [Example 16g, N-((1r,4r)-4-(4′-(cyclopropylmethyl)-2′-(2-hydroxy-2-methylpropylamino)-4,5′-bipyrimidin-2-ylamino)cyclohexyl)methanesulfonamide] | 872
38 | Cc1nc(N)ncc1-c1ccnc(Nc2ccncc2)n1 [Example 21, 4′-Methyl-N^2-pyridin-4-yl-[4,5′]bipyrimidinyl-2,2′-diamine] | 22.2
39 | Nc1ncc(-c2ccnc(Nc3ccncc3)n2)c(C(F)(F)F)n1 [Example 22, N2-(pyridin-4-yl)-4′-(trifluoromethyl)-4,5′-bipyrimidine-2,2′-diamine] | 31
40 | Nc1ncc(-c2ccnc(Nc3ccncc3)n2)c(CO)n1 [Example 23, [2′-Amino-2-(pyridin-4-ylamino)-4,5′-bipyrimidin-4′-yl]methanol] | 130
